Article PMC11055893, “Cyclodipeptide oxidase is an enzyme filament” (Nature Communications, 2024)

How the values were obtained:
AlbAB = biological target: T1, AlbAB (Streptomyces noursei, UniProt Q8GED8+Q8GED9, Q8GED9:S77A); assay: coupled horseradish peroxidase H2O2 fluorescence assay, Michaelis-Menten fit; assay type: biochemical; conditions: 100 mM Tris pH 8.0, 30 °C, O2, 1 mM 4-hydroxyphenylacetic acid, 0.1 U HRP, 0.25 µM AlbAB
T1 construct: gene albA; AlbA ca. 21 kDa, AlbB ca. 11 kDa; filament of alternating AlbA2 and AlbB2 dimers; FMN covalent at AlbA C115

[1] = biological target: the molecule itself; assay: SEC + other: dynamic light scattering; DLS at 25 °C, AlbAB 0.1 mg/mL and AlbB 1 mg/mL in 150 mM NaCl, 20 mM Tris pH 7.5; size exclusion chromatography

T1 sequence (Q8GED9 24-219 S77A, one chain of several): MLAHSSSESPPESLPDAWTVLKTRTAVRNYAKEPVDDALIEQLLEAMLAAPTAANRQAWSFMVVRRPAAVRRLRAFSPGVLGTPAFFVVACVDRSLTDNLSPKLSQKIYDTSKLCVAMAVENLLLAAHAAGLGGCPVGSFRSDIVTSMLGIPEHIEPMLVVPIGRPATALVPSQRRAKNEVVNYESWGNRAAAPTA

## CC(C)C[C@@H]1NC(=O)[C@H](Cc2ccccc2)NC1=O [cyclo(L-Phe-L-Leu)]
AlbAB
  KM: velocities for AlbAB and AlbA-S54A/AlbB were then fit to a Michaelis-Menton non-linear regression model

B1: AlbB expressed alone (His tag removed) (natural protein, Streptomyces noursei)
chain: MNPGETVLPPQLREEIALLAVYLLSSGRGLLEEPADYGIYRCTDGARRALQLLDEHGGSTARLTAVRERLDEVMFAPMGEDRDMGAILDDLCRQMADALPEIETP
notes: AlbB, Streptomyces noursei; gene PCR-amplified from the AlbAB-encoding pGM1190 vector into pETDuet-1 multiple cloning site 2, with a TEV site to remove the tag; also called His-tagged AlbB; source: E. coli BL21 (DE3), pETDuet-1, purified (His-Trap, TEV cleavage, second His-Trap); not shown: His tag, N-terminal, cleaved
[1]
  stoichiometry N: 2
